Data: US20260315468A1, “PHARMACEUTICAL COMPOSITION AND USE THEREOF” (SHANGHAI ALLIST PHARMACEUTICAL CO., LTD., priority 2022, published 2026)
pIC50: −log10 of the molar value.

Columns and labels:
Test in all cases: Anti-proliferation, CellTiter-Glo Luminescent Cell Viability Assay
Type in all cases: cell-based
Ba/F3 EGFR-Del19/C797S = conditions: Mus musculus, BaF3, 72 h, 3 days
From the text: (§1) The objective of the test example 1 was to evaluate the anti-proliferation effect of Furmonertinib mesilate on 18 cell lines (Ba/F3 EGFR-G719S, Ba/F3 EGFR-S768I, Ba/F3 EGFR-G724S, Ba/F3 EGFR-L718Q, Ba/F3 EGFR-Del19/G724S, Ba/F3 EGFR-E709H, Ba/F3 EGFR-L747S, Ba/F3 EGFR-E709V, Ba/F3 EGFR-L747V, Ba/F3 EGFR-E709-710>D, Ba/F3 EGFR-E709A, Ba/F3 EGFR-Del19/C797S, Ba/F3 EGFR-L858R/C797S, Ba/F3 EGFR-L747S/G719A, Ba/F3-EGFR-L858R-L718V, Ba/F3-EGFR-L858R-L718Q, Ba/F3-EGFR-E709K-G719A, and Ba/F3 EGFR-L861Q) using standard CellTiter-Glo® Luminescent Cell Viability Assay. Further, AZD9291 was used as control compound.
(§2) Cell culture: Ba/F3 EGFR-G719S, Ba/F3 EGFR-S768I, Ba/F3 EGFR-G724S, Ba/F3 EGFR-L718Q, Ba/F3 EGFR-Del19/G724S, Ba/F3 EGFR-E709H, Ba/F3 EGFR-L747S, Ba/F3 EGFR-E709V, Ba/F3 EGFR-L747V, Ba/F3 EGFR-E709-710>D, Ba/F3 EGFR-E709A, Ba/F3 EGFR-Del19/C797S, Ba/F3 EGFR-L858R/C797S, Ba/F3 EGFR-L747S/G719A, Ba/F3-EGFR-L858R-L718V, Ba/F3-EGFR-L858R-L718Q, Ba/F3-EGFR-E709K-G719A, and Ba/F3 EGFR-L861Q engineered cells were obtained from Kyinno, and maintained at 37° C. with 5% CO2, in the RPMI1640 media supplemented with 10% fetal bovine serum.
(§3) The cells during the logarithmic growth period were harvested and counted by using blood counting chamber. The cell viability was over 90% which was determined by trypan blue assay. The cell concentration was adjusted with culture medium. 90 μl cell suspensions was added to two 96-well plates to obtain the final cell density of 3000 cells per well. The plates were incubated in humidified incubator at 37° C. with 5% CO2.
(§4) The solution of tested compounds (Furmonertinib mesilate and AZD9291) was diluted 1000-fold with DMSO. Then, said DMSO solution was diluted 100-fold with PBS (Phosphate Buffered Saline) to obtain 10× working solution. And 10× reference control solution was prepared by Phosphate Buffered Saline (PBS). 10 μl working solution (10×) was dispensed to each well (triplicate for each concentration). (The top concentration was 3160 nM, 3.16-fold dilution and 10 different concentrations. The final concentration of DMSO in culture medium was 0.1% [v/v]). The plate was cultured for 3 days.
(§5) On Day 3, CellTiter-Glo® reagent (a luciferase ATP bioluminescence detection reagent) was thawed, and then the cell plate was equilibrated at room temperature for approximately 30 minutes. 100 μl CellTiter-Glo® Reagent which was equal to the volume of cell culture medium present in each well was added. The obtained content was mixed for 5 minutes on an orbital shaker to induce cell lysis. The cell plate was incubated at room temperature for 20 minutes to stabilize luminescent signal. The luminescence was recorded by using Multi-mode Microplate Reader.
(§6) [formula] • blank control: medium control; • vehicle control: culture medium with 0.1% DMSO
(§7) The graphical curves were fitted using a nonlinear regression model with a sigmoidal dose response.

Ba/F3 EGFR-Del19/G724S = conditions: Mus musculus, BaF3, 72 h, 3 days
From the text: as §1, §2, §3, §4, §5, §6, §7

Ba/F3 EGFR-E709-710 > D = conditions: Mus musculus, BaF3, 72 h, 3 days
From the text: as §1, §2, §3, §4, §5, §6, §7

Ba/F3 EGFR-E709A = conditions: Mus musculus, BaF3, 72 h, 3 days
From the text: as §1, §2, §3, §4, §5, §6, §7

Ba/F3 EGFR-E709H = conditions: Mus musculus, BaF3, 72 h, 3 days
From the text: as §1, §2, §3, §4, §5, §6, §7

Ba/F3 EGFR-E709V = conditions: Mus musculus, BaF3, 72 h, 3 days
From the text: as §1, §2, §3, §4, §5, §6, §7

Ba/F3 EGFR-G719S = conditions: Mus musculus, BaF3, 72 h, 3 days
From the text: as §1, §2, §3, §4, §5, §6, §7

Ba/F3 EGFR-G724S = conditions: Mus musculus, BaF3, 72 h, 3 days
From the text: as §1, §2, §3, §4, §5, §6, §7

Ba/F3 EGFR-L718Q = conditions: Mus musculus, BaF3, 72 h, 3 days
From the text: as §1, §2, §3, §4, §5, §6, §7

Ba/F3 EGFR-L747S/G719A = conditions: Mus musculus, BaF3, 72 h, 3 days
From the text: as §1, §2, §3, §4, §5, §6, §7

Ba/F3 EGFR-L747S = conditions: Mus musculus, BaF3, 72 h, 3 days
From the text: as §1, §2, §3, §4, §5, §6, §7

Ba/F3 EGFR-L747V = conditions: Mus musculus, BaF3, 72 h, 3 days
From the text: as §1, §2, §3, §4, §5, §6, §7

Ba/F3 EGFR-L858R/C797S = conditions: Mus musculus, BaF3, 72 h, 3 days
From the text: as §1, §2, §3, §4, §5, §6, §7

Ba/F3 EGFR-L861Q = conditions: Mus musculus, BaF3, 72 h, 3 days
From the text: as §1, §2, §3, §4, §5, §6, §7

Ba/F3 EGFR-S768I = conditions: Mus musculus, BaF3, 72 h, 3 days
From the text: as §1, §2, §3, §4, §5, §6, §7

Ba/F3-EGFR-E709K-G719A = conditions: 72 h, 3 days
From the text: as §1, §2, §3, §4, §5, §6, §7

Ba/F3-EGFR-L858R-L718Q = conditions: 72 h, 3 days
From the text: as §1, §2, §3, §4, §5, §6, §7

Ba/F3-EGFR-L858R-L718V = conditions: 72 h, 3 days
From the text: as §1, §2, §3, §4, §5, §6, §7

C=CC(=O)Nc1cc(Nc2nccc(-c3cn(C)c4ccccc34)n2)c(OC)cc1N(C)CCN(C)C [AZD9291, reference compound]
pIC50 (Ba/F3 EGFR-Del19/C797S): 5.70
pIC50 (Ba/F3 EGFR-Del19/G724S): 7.79
pIC50 (Ba/F3 EGFR-E709-710 > D): 6.70
pIC50 (Ba/F3 EGFR-E709A): 7.19
pIC50 (Ba/F3 EGFR-E709H): 6.91
pIC50 (Ba/F3 EGFR-E709V): 7.32
pIC50 (Ba/F3 EGFR-G719S): 7.26
pIC50 (Ba/F3 EGFR-G724S): 7.14
pIC50 (Ba/F3 EGFR-L718Q): < 6.00
pIC50 (Ba/F3 EGFR-L747S/G719A): 7.04
pIC50 (Ba/F3 EGFR-L747S): 7.42
pIC50 (Ba/F3 EGFR-L747V): 7.27
pIC50 (Ba/F3 EGFR-L858R/C797S): 5.66
pIC50 (Ba/F3 EGFR-L861Q): 7.61
pIC50 (Ba/F3 EGFR-S768I): 7.07
pIC50 (Ba/F3-EGFR-E709K-G719A): 6.79
pIC50 (Ba/F3-EGFR-L858R-L718Q): 6.03
pIC50 (Ba/F3-EGFR-L858R-L718V): 6.76
